The subject of data set [1] is breast cancer. The following applies: 24 hour infusion at 250 mg/M^2; similar breast cancer patient group; cited from earlier work.
Data set [2] relates to diffuse large cell lymphoma. As to the kind of experiment: 96 hour continuous infusion every 21 days in lymphoma patients. The format is in vivo, human. The following applies: 70-140 mg/M^2/96 hrs every 21 days. An excerpt:
This 96 hr continuous infusion was repeated every 21 days, while patients were monitored for a response after every two cycles.

Data set [3] deals with refractory acute leukemia. The following applies: cited from earlier work.
The next data set concerns melanoma. The conditions noted are these: 30 patients with melanoma; 250 mg/M^2 as 24 hour continuous infusion; cited from earlier work.
In the next data set the test system is mammalian cells. The conditions noted are these: actively dividing cells; cited from earlier work.
The next data set concerns ovarian cancer. The conditions noted are these: 34 patients with ovarian cancer; 250 mg/M^2 as 24 hour continuous infusion; cited from earlier work.
The subject of another data set is patients. The following applies: infusion times up to 24 hours; cited from earlier work.
Data set [4] has as its system breast cancer. As to the kind of experiment: 96 hour continuous infusion every 21 days in breast cancer patients. The following applies: 70-140 mg/M^2/96 hrs every 21 days.
Setting [5] is: 6 patients with diffuse large cell lymphoma.

In the case of `CC(=O)O[C@H]1C(=O)[C@@]2(C)[C@H]([C@H](OC(=O)c3ccccc3)[C@]3(O)C[C@H](OC(=O)[C@H](O)[C@@H](NC(=O)c4ccccc4)c4ccccc4)C(C)=C1C3(C)C)[C@]1(OC(C)=O)CO[C@@H]1C[C@@H]2O` [Taxol], the response rate in the data set with breast cancer [1] was 33%. Besides, in data set [2] (setting [5]), the “number of minor remissions (MR)” value is on record as 1 patients, the “number of partial remissions (PR)” value was determined as 3 patients and the partial remission rate is given as 50%. Moreover, the “patients in whom Taxol was active (PR + MR)” value in data set [2] (diffuse large cell lymphoma) was 4 out of 6. Besides, the “toxicity limiting further dose escalation” value in data set [3] (17 patients, 24 hour continuous infusion, 200 to 390 mg/M^2) was “Severe mucositis”. Besides, the maximum tolerated dose in data set [3] (17 patients, 24 hour continuous infusion, escalated from 200 to 390 mg/M^2) is recorded as 390 mg/M^2. Besides, the “patients with transient reductions in peripheral blood and bone marrow blasts” value in data set [3] (of 17 patients) is recorded as “Nine”. Besides, the objective response rate in the data set on melanoma is 13%. Moreover, in the data set on mammalian cells, the “Taxol concentration that usually causes a significant increase in microtubule number, changes in cell shape and mitotic arrest” value is 50 Nm. For the same compound, in the data set with ovarian cancer, the major toxicities result was “neutropenia and peripheral neuropathy”; the objective response rate was 21%. The dose limiting toxicity entry in the data set on patients was “reversible myclosuppression”. For the same compound, in the data set with breast cancer [4] (11 breast cancer patients), the “number of minor remissions (MR)” value is recorded as 2 patients, the “number of partial remissions (PR)” value is 7 patients, the partial remission rate amounted to 64% and the total response rate is reported as 82%. In addition, the “patients with positive response (PR + MR)” value with breast cancer [4] (breast cancer, prior doxorubicin or mitoxantrone regimen) was 9 out of the 11.
